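All cell lines were grown in 96-well plates and treated with compound for 48 hours. Abbreviation: GI50, concentration required for 50% inhibition of growth.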 The source made the active and inactive calls. No stated cut-off is given here; in the data, active = GI50 up to about 1.1 µM and inactive = higher.
Key:
Assay in all cases: inhibition of tumour cell growth, NCI panel, 48 h
HL-60 = test system: HL-60
CAKI-1 = test system: CAKI-1
SK-OV-3 = test system: SK-OV-3
M19-MEL = test system: M19-MEL
SN12C = test system: SN12C
UACC-257 = test system: UACC-257
HCT-116 = test system: HCT-116
SF-268 = test system: SF-268
HCC 2998 = test system: HCC 2998
HOP-92 = test system: HOP-92
KM12 = test system: KM12
HCT-15 = test system: HCT-15
CCRF-CEM = test system: CCRF-CEM
UACC-62 = test system: UACC-62
NCI-H23 = test system: NCI-H23
MCF7 = test system: MCF7
SR = test system: SR
MDA-N = test system: MDA-N
PC-3 = test system: PC-3
T47D = test system: T47D

Row | Compound | GI50 (HL-60) | GI50 (CAKI-1) | GI50 (SK-OV-3) | GI50 (M19-MEL) | GI50 (SN12C) | GI50 (UACC-257) | GI50 (HCT-116) | GI50 (SF-268) | GI50 (HCC 2998) | GI50 (HOP-92) | GI50 (KM12) | GI50 (HCT-15) | GI50 (CCRF-CEM) | GI50 (UACC-62) | GI50 (NCI-H23) | GI50 (MCF7) | GI50 (SR) | GI50 (MDA-N) | GI50 (PC-3) | GI50 (T47D)
1 | Cn1c(=O)[nH]c2nncnc2c1=O | 27.9 µM (inactive) | 11 µM (inactive) | 146 µM (inactive) | 43.7 µM (inactive) | 148 µM (inactive) | 75.3 µM (inactive) | 29.2 µM (inactive) | 133 µM (inactive) | 54 µM (inactive) | 21.3 µM (inactive) | 23.8 µM (inactive) | 299 µM | 173 µM (inactive) | 44.4 µM (inactive) | 179 µM (inactive) | 212 µM (inactive) |  |  |  | 
2 | O=C(Nc1ccc(Cl)cc1Cl)OC(Cn1cncn1)c1ccc(Cl)cc1Cl (stereo not given) | 44 µM (inactive) |  | 18.3 µM (inactive) | 17.1 µM (inactive) | 16.9 µM (inactive) | 17 µM (inactive) | 14.1 µM (inactive) | 17.1 µM (inactive) |  |  | 17.2 µM (inactive) | 16.6 µM | 38.9 µM (inactive) | 14.8 µM (inactive) | 14.6 µM (inactive) |  | 41.3 µM (inactive) |  |  | 
3 | CSc1nc(CO)c(CO)n1C | > 100 µM (inactive) | > 100 µM (inactive) | > 100 µM (inactive) | > 100 µM (inactive) | > 100 µM (inactive) | > 100 µM (inactive) | > 100 µM (inactive) | > 100 µM (inactive) | > 100 µM (inactive) | > 100 µM (inactive) | > 100 µM (inactive) | > 100 µM | > 100 µM (inactive) | > 100 µM (inactive) | > 100 µM (inactive) | > 100 µM (inactive) |  |  |  | 
4 | CCP(C)(C)=O |  | > 100 µM (inactive) | > 100 µM (inactive) | > 100 µM (inactive) | > 100 µM (inactive) | > 100 µM (inactive) |  | > 100 µM (inactive) | > 100 µM (inactive) |  | > 100 µM (inactive) | > 100 µM | > 100 µM (inactive) | > 100 µM (inactive) | > 100 µM (inactive) |  |  |  |  | 
5 | N#CCc1ccc(/C(C#N)=C2/OC(=N)C(c3ccc(CC#N)cc3)C2=O)cc1 (stereo not given) | > 100 µM (inactive) | > 100 µM (inactive) | > 100 µM (inactive) | > 100 µM (inactive) | > 100 µM (inactive) | > 100 µM (inactive) | > 100 µM (inactive) | > 100 µM (inactive) |  | > 100 µM (inactive) |  | > 100 µM | > 100 µM (inactive) | > 100 µM (inactive) | > 100 µM (inactive) |  |  |  |  | 
6 | COC(=O)Cc1cc(OC)c(OC)cc1Br | > 100 µM (inactive) | > 100 µM (inactive) | > 100 µM (inactive) | > 100 µM (inactive) | > 100 µM (inactive) | > 100 µM (inactive) | > 100 µM (inactive) | > 100 µM (inactive) | > 100 µM (inactive) | > 100 µM (inactive) | > 100 µM (inactive) |  | > 100 µM (inactive) | > 100 µM (inactive) | > 100 µM (inactive) |  | > 100 µM (inactive) |  |  | 
7 | O=c1[c-](-c2ccccc2)[se]c(-c2ccccc2)[n+]1-c1ccccc1 | 1.53 µM (inactive) | 19.1 µM (inactive) | 24.2 µM (inactive) | 7.59 µM (inactive) | 5.05 µM (inactive) | 12.8 µM (inactive) | 3.51 µM (inactive) | 5.55 µM (inactive) | 6.35 µM (inactive) | 18.6 µM (inactive) | 10.3 µM (inactive) | 13.2 µM | 3.87 µM (inactive) | 13 µM (inactive) | 11.8 µM (inactive) |  |  |  |  | 
8 | Cc1cc2c(cc1C)[n+]([O-])c(C(=O)C/C(=N/NC(=O)CC#N)C(=O)Nc1ccccc1C(F)(F)F)c(C)[n+]2[O-] | 24.3 µM (inactive) | 57.7 µM (inactive) | > 100 µM (inactive) | 43.2 µM (inactive) | 76 µM (inactive) | 44.6 µM (inactive) | 4.05 µM (inactive) | 39.9 µM (inactive) | 65.5 µM (inactive) |  | 34 µM (inactive) | 36.6 µM | 25.4 µM (inactive) | 34 µM (inactive) | 91.4 µM (inactive) |  |  |  |  | 
9 | COc1cc(OC)cc(-c2cc(O)c3cc4c(cc3n2)OCO4)c1 | 0.162 µM (active) | 0.309 µM (active) | 0.27 µM (active) | 0.321 µM (active) | 0.367 µM (active) | 1.96 µM (inactive) | 0.169 µM (active) | 0.54 µM (active) | 0.225 µM (active) | 0.314 µM (active) | 0.17 µM (active) | 0.263 µM | 0.206 µM (active) | 0.209 µM (active) | 0.351 µM (active) |  | 0.199 µM (active) |  |  | 
10 | O=C1C=C(Nc2ccc(Br)cc2)c2ccccc2C1=O | 4.51 µM (inactive) |  | 16.8 µM (inactive) | 1.73 µM (inactive) | 15.2 µM (inactive) | 13.5 µM (inactive) | 13.6 µM (inactive) | 13.5 µM (inactive) | 15 µM (inactive) |  | 14.1 µM (inactive) | 5.26 µM | 11 µM (inactive) | 4.39 µM (inactive) | 3.33 µM (inactive) |  | 2.54 µM (inactive) |  |  | 
11 | CC(C)(C)c1cc(CCC(=O)Nc2ccc(Cl)cc2)nc(NC#N)n1 | > 100 µM (inactive) | > 100 µM (inactive) | > 100 µM (inactive) | > 100 µM (inactive) |  | > 100 µM (inactive) | > 100 µM (inactive) | > 100 µM (inactive) |  | 91 µM (inactive) | > 100 µM (inactive) | > 100 µM | > 100 µM (inactive) | > 100 µM (inactive) | > 100 µM (inactive) |  |  |  |  | 
12 | CC(=O)Nc1ccc(Cl)c(Cl)c1 | > 10 µM (inactive) |  | > 100 µM (inactive) | > 100 µM (inactive) | > 100 µM (inactive) | > 100 µM (inactive) | > 100 µM (inactive) | > 100 µM (inactive) | > 100 µM (inactive) |  | > 100 µM (inactive) | > 100 µM | > 100 µM (inactive) | > 100 µM (inactive) | > 100 µM (inactive) |  | > 100 µM (inactive) |  |  | 
13 | Cc1ccc(C)c(C(=O)CC2OC(O)C(Cl)C2Cl)c1 (stereo not given) | 20.6 µM (inactive) | 30.4 µM (inactive) | > 100 µM (inactive) | 72.3 µM (inactive) | 5.7 µM (inactive) | > 100 µM (inactive) | 29.7 µM (inactive) | > 100 µM (inactive) | > 100 µM (inactive) | 30.6 µM (inactive) | > 100 µM (inactive) | 34.8 µM | 41.1 µM (inactive) | 57.3 µM (inactive) | > 100 µM (inactive) |  | 44 µM (inactive) |  |  | 
14 | COC(=O)C1=C(c2ccc3c(c2)OCO3)O[C@H](c2ccc3c(c2)OCO3)[C@H]1COC(C)=O | 21.8 µM (inactive) | 27.5 µM (inactive) | 41 µM (inactive) | 33.3 µM (inactive) | 45.2 µM (inactive) | 55.2 µM (inactive) | 51.5 µM (inactive) | 87.5 µM (inactive) | 35.7 µM (inactive) | 30.5 µM (inactive) | 62.4 µM (inactive) | 53.1 µM | 78.9 µM (inactive) | 38.6 µM (inactive) | 37.3 µM (inactive) |  | 32.1 µM (inactive) |  |  | 
15 | Cc1cccc2nc3cccc(C(=O)NCCN(C)C)c3nc12 | 0.461 µM (active) | 0.482 µM (active) | 0.574 µM (active) | 0.675 µM (active) | 0.339 µM (active) | 0.491 µM (active) | 0.293 µM (active) | 0.885 µM (active) | 1.04 µM (active) | 0.605 µM (active) | 0.641 µM (active) | 0.442 µM | 0.627 µM (active) | 0.644 µM (active) | 0.541 µM (active) |  |  |  |  | 
16 | COc1ccc2c(c1O)-c1cc(O)cc3c1[C@@H](C2)N(C)CC3 | 11 µM (inactive) | 12.3 µM (inactive) | 203 µM (inactive) | 67.8 µM (inactive) | 82 µM (inactive) | 71 µM (inactive) | 27 µM (inactive) | 75.3 µM (inactive) | 73.6 µM (inactive) | 19 µM (inactive) | 54.8 µM (inactive) | 71.1 µM | 81.1 µM (inactive) | 70 µM (inactive) | 96.8 µM (inactive) | 61.8 µM (inactive) |  |  |  | 
17 | CC(=O)c1c(P(=O)(OC(C)C)OC(C)C)nn(-c2ccc([N+](=O)[O-])cc2)c1C | > 100 µM (inactive) | > 100 µM (inactive) | > 100 µM (inactive) | > 100 µM (inactive) | > 100 µM (inactive) | > 100 µM (inactive) | > 100 µM (inactive) | > 100 µM (inactive) | > 100 µM (inactive) | > 100 µM (inactive) | > 100 µM (inactive) | > 100 µM | > 100 µM (inactive) | > 100 µM (inactive) | > 100 µM (inactive) |  | > 100 µM (inactive) |  |  | 
18 | O=C(Nc1cccc2nsnc12)c1cc2c(cc1Cl)Sc1nccn1S2(=O)=O | 1.85 µM (inactive) | 9.55 µM (inactive) | 54.5 µM (inactive) |  | 13.6 µM (inactive) | 1.81 µM (inactive) | 2.77 µM (inactive) | 3.62 µM (inactive) | 3.38 µM (inactive) | 4.4 µM (inactive) | 2.08 µM (inactive) | 5.19 µM | 3.28 µM (inactive) | 5.33 µM (inactive) | 11.2 µM (inactive) | 1.73 µM (inactive) | 2.73 µM (inactive) | 14.1 µM (inactive) | 1.9 µM (inactive) | 2.24 µM (inactive)
19 | CCOC(=O)Nc1cc2nnc(-c3ccccc3)nc2c(N)n1 | 17.7 µM (inactive) | 27.6 µM (inactive) | 2.45 µM (inactive) | 4.35 µM (inactive) | 35.2 µM (inactive) | 15.7 µM (inactive) | 10.9 µM (inactive) | 29.2 µM (inactive) | 15.8 µM (inactive) | 13 µM (inactive) | 1.1 µM (active) | 6.46 µM | 32.1 µM (inactive) | 9.35 µM (inactive) | 14.1 µM (inactive) |  | 23.9 µM (inactive) |  |  | 

— ChEMBL document CHEMBL1201862, “PubChem BioAssay data set” (2004)
